Measurements from patent US9670213B2, “Pteridine ketone derivative and applications thereof as EGFR, BLK, and FLT3 inhibitor” (EAST CHINA UNIVERSITY OF SCIENCE AND TECHNOLOGY, priority 2012, dated 2017).

Experiments:
Type in all cases: biochemical
EGFR-L858R/T790M = EGFR-L858R/T790M (Homo sapiens (Human), UniProt P00533, L858R/T790M); assay: In vitro EGFR kinase activity assay (Z'-Lyte); settings: read-out: Inhibitory activity on EGFR kinase (IC50, nM) T790M/L858R;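 further: Cell-free kinase reaction with peptide substrate and ATP, 1.5 h at room temperature, development cleaving unphosphorylated peptide, 10-point dilution 0.051–1000 nM, phosphopeptide as 100% phosphorylation control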
Protocol: Inhibitory effects in vitro of the compounds provided in the present invention on EGFR kinase activity was tested as follows:
10 concentration gradients, from 5.1×10^−11 mol/L to 1.0×10^−6 mol/L, were set for all of the compounds to be tested.
10 μL of kinase reaction system comprised 2.5 μL of compound solution, 5 μL of Kinase/peptide mixture, and 2.5 μL of ATP solution. 5 μL of phosphopeptide solution was used in place of kinase/peptide mixture as 100% phosphorylation control. […] After thoroughly mixing the solution within the plate, the plate was incubated at room temperature for 1.5 hours. 5 μL of DevelopmentSolution was added into each well, and then the plate was incubated at room temperature for another 1 hour, and non-phosphorylated peptide was cleaved within this period. Finally, the reaction was quenched by adding 5 μL of Stop Reagent. The Plate was measured with EnVision Multilabel Reader (Perkin Elmer). Experimental data were calculated by using GraphPad Prism version 4.0. Each experiment was repeated more than three times.

BLK [1] = target: T1, BLK (Homo sapiens (Human), UniProt P51451); assay: BLK kinase activity assay (Caliper); settings: read-out: Inhibitory activity on kinase (IC50, nM) BLK
Protocol: Preparation of 1× kinase matrix buffer and stop buffer.
Preparation of compound solution. The compound was dissolved in 100% DMSO to a concentration, which was 50 times of the final highest inhibiting-concentration. 100 μL of the compound solution as said above was transferred into wells of 96-well plate. The above compound solution was sequentially diluted to the final desired concentration. In two blank wells of same 96-well plate, 100 μL of 100% DMSO was added as no-compound and no-kinase control, and this plate was used as the original plate.
Preparation of intermediate plate. 10 μL of compound solution was transferred from the original plate to another 96-well plate as the intermediate plate; 90 μL of 1× kinase buffer was added into each well of the intermediate plate, and the intermediate plate was shaken for 10 min.
Preparation of assay plate. 5 μL of solution from each well of intermediate plate was added into a 384-well plate, and repeated controls were set.
Kinase reaction. 2.5× kinase solution and 2.5× peptide solution were prepared. 2.5× kinase solution was transferred into assay plate. Assay plate comprised 5 μL of the compound solution in 10% DMSO. 10 μL of 2.5× kinase solution was added in each well of 384-well assay plate. […] 2.5× peptide solution was added into each well. After incubated at 28° C. for an appropriate time, 25 μL of stop buffer was added to quench the reaction. Experimental data were collected in Caliper. Curve was fitted.

ABL = ABL (Homo sapiens (Human), UniProt P00519); assay: Kinase selectivity analysis (Caliper mobility shift assay); settings: for inhibition at 1 µM: read-out: % inhibition (1 μM), 1 μM; for inhibition at 10 µM: read-out: % inhibition (10 μM), 10 μM
Protocol: (§1) Kinase selectivity analysis: kinase selectivity experiment was performed by Shanghai ChemPartner using Caliper assay screening platform. All of kinases and other materials were purchased from commercial companies.
(§2) 3. Preparation of assay plate: 5 μL of solution from each well of the 96-well temporary plate was added into a 384-well plate, and the experiment was independently repeated.
(§3) 5. Caliper readings: experimental data were collected on Caliper.
(§4) 6. Curve fitting: 1) conversion data were replicated from Caliper program. 2) the conversion value was converted into inhibition rate, inhibition rate %=(maximum−conversion value)/(maximum−minimum)*100, wherein “maximum” represents DMSO control, and minimum represents the low control.

AUR B = AUR B (Homo sapiens (Human), UniProt Q96GD4); assay: as above; settings: for inhibition at 1 µM: read-out: % inhibition (1 μM), 1 μM; for inhibition at 10 µM: read-out: % inhibition (10 μM), 10 μM
Protocol: as §1, §2, §3, §4

BLK [2] = target: T1, BLK; assay: as above; settings: for inhibition at 1 µM: read-out: % inhibition (1 μM), 1 μM; for inhibition at 10 µM: read-out: % inhibition (10 μM), 10 μM
Protocol: as §1, §2, §3, §4

FGFR3 = FGFR3 (Homo sapiens (Human), UniProt P22607); assay: as above; settings: for inhibition at 1 µM: read-out: % inhibition (1 μM), FGFR3, 1 μM; for inhibition at 10 µM: read-out: % inhibition (10 μM), FGFR3, 10 μM
Protocol: as §1, §2, §3, §4

FLT3 = FLT3 (Homo sapiens (Human), UniProt P36888); assay: as above; settings: for inhibition at 1 µM: read-out: % inhibition (1 μM), FLT3, 1 μM; for inhibition at 10 µM: read-out: % inhibition (10 μM), FLT3, 10 μM
Protocol: as §1, §2, §3, §4

HER4 = HER4 (Homo sapiens (Human), UniProt Q15303); assay: as above; settings: for inhibition at 1 µM: read-out: % inhibition (1 μM), HER4, 1 μM; for inhibition at 10 µM: read-out: % inhibition (10 μM), HER4, 10 μM
Protocol: as §1, §2, §3, §4

IGF1R = IGF1R (Homo sapiens (Human), UniProt P08069); assay: as above; settings: for inhibition at 1 µM: read-out: % inhibition (1 μM), 1 μM; for inhibition at 10 µM: read-out: % inhibition (10 μM), 10 μM
Protocol: as §1, §2, §3, §4

KDR = KDR (Homo sapiens (Human), UniProt P35968); assay: as above; settings: for inhibition at 1 µM: read-out: % inhibition (1 μM), 1 μM; for inhibition at 10 µM: read-out: % inhibition (10 μM), 10 μM
Protocol: as §1, §2, §3, §4

LCK = LCK (Homo sapiens (Human), UniProt P06239); assay: as above; settings: for inhibition at 1 µM: read-out: % inhibition (1 μM), 1 μM; for inhibition at 10 µM: read-out: % inhibition (10 μM), 10 μM
Protocol: as §1, §2, §3, §4

LYNA = LYNA (Homo sapiens (Human), UniProt P07948); assay: as above; settings: for inhibition at 1 µM: read-out: % inhibition (1 μM), 1 μM; for inhibition at 10 µM: read-out: % inhibition (10 μM), 10 μM
Protocol: as §1, §2, §3, §4

PDGFRb = PDGFRb (Homo sapiens (Human), UniProt P09619); assay: as above; settings: for inhibition at 1 µM: read-out: % inhibition (1 μM), 1 μM; for inhibition at 10 µM: read-out: % inhibition (10 μM), 10 μM
Protocol: as §1, §2, §3, §4

PIM1 = PIM1 (Homo sapiens (Human), UniProt P11309); assay: as above; settings: for inhibition at 1 µM: read-out: % inhibition (1 μM), PIM1, 1 μM; for inhibition at 10 µM: read-out: % inhibition (10 μM), PIM1, 10 μM
Protocol: as §1, §2, §3, §4

SRC = SRC (Homo sapiens (Human), UniProt P12931); assay: as above; settings: for inhibition at 1 µM: read-out: % inhibition (1 μM), 1 μM; for inhibition at 10 µM: read-out: % inhibition (10 μM), 10 μM
Protocol: as §1, §2, §3, §4

cKit = cKit (Homo sapiens (Human), UniProt P10721); assay: as above; settings: for inhibition at 1 µM: read-out: % inhibition (1 μM), 1 μM; for inhibition at 10 µM: read-out: % inhibition (10 μM), 10 μM
Protocol: as §1, §2, §3, §4

ABL, sequence (P00519 whole entry, species assumed): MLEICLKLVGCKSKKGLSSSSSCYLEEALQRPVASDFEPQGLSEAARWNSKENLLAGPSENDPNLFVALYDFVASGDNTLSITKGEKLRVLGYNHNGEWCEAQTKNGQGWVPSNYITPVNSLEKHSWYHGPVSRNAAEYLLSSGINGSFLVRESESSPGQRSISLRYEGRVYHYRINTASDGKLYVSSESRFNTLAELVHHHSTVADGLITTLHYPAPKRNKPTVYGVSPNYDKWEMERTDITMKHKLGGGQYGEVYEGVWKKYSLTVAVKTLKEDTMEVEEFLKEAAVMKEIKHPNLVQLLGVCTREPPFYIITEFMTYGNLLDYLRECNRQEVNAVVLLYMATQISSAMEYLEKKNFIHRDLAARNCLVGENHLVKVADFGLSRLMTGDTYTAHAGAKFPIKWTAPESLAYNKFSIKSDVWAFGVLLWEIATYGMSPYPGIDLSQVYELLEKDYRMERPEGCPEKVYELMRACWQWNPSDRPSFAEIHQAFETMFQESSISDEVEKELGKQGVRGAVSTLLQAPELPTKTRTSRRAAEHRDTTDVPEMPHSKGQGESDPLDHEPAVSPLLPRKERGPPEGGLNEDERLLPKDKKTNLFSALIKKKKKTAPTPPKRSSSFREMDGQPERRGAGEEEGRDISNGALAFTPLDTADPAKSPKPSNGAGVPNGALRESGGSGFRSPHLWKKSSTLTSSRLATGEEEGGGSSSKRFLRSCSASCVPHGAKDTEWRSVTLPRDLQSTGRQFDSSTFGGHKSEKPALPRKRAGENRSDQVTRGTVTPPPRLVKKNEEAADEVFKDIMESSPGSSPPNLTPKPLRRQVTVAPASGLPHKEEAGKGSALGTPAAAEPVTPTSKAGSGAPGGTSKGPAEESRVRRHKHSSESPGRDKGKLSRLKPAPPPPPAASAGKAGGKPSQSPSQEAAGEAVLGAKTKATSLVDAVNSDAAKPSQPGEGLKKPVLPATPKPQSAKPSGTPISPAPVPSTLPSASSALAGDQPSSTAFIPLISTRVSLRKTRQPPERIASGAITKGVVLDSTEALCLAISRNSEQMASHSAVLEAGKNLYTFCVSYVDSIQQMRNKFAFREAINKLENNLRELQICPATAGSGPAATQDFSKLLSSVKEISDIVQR
LCK, sequence (P06239 whole entry, species assumed): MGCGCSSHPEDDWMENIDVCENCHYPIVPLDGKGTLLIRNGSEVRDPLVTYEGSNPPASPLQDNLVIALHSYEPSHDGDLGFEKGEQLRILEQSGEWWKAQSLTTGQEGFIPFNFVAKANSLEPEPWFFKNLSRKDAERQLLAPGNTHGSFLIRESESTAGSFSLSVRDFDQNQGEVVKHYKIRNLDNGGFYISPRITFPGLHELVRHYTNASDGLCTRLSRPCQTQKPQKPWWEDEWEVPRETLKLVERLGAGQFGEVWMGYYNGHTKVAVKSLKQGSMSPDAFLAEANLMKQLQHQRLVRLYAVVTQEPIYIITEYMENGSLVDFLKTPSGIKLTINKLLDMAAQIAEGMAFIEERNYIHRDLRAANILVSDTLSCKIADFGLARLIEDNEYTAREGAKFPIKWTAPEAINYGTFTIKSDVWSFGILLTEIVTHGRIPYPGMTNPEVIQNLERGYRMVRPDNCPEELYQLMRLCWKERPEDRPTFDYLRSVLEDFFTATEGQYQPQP
PDGFRb, sequence (P09619 33-1106, species assumed): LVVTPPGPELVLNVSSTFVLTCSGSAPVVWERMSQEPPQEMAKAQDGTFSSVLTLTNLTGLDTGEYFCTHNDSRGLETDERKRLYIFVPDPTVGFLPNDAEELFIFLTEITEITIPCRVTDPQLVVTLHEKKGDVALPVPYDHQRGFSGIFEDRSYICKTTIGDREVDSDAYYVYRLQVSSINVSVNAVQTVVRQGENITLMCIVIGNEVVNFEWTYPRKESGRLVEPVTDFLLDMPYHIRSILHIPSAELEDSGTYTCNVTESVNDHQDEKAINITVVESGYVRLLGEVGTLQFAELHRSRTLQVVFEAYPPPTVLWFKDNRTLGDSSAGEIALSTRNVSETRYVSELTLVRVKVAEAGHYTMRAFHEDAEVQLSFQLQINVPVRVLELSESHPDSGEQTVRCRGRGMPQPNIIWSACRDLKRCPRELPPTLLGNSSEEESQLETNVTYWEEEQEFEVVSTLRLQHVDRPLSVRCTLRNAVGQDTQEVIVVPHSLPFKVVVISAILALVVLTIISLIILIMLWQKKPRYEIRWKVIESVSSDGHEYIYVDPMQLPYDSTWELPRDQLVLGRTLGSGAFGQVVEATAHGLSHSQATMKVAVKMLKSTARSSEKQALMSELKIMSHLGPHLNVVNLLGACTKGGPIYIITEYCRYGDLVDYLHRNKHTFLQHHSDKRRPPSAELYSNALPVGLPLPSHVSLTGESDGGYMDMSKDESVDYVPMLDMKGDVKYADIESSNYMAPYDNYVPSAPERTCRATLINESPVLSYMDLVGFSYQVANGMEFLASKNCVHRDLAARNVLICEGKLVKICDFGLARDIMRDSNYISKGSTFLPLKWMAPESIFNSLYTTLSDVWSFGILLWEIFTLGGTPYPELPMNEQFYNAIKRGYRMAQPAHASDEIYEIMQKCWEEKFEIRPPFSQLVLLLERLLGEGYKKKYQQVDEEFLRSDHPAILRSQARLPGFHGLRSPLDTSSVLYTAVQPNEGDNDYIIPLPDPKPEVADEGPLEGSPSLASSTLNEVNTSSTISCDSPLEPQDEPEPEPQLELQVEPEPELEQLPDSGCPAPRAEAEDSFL
IGF1R, sequence (P08069 31-1367, species assumed): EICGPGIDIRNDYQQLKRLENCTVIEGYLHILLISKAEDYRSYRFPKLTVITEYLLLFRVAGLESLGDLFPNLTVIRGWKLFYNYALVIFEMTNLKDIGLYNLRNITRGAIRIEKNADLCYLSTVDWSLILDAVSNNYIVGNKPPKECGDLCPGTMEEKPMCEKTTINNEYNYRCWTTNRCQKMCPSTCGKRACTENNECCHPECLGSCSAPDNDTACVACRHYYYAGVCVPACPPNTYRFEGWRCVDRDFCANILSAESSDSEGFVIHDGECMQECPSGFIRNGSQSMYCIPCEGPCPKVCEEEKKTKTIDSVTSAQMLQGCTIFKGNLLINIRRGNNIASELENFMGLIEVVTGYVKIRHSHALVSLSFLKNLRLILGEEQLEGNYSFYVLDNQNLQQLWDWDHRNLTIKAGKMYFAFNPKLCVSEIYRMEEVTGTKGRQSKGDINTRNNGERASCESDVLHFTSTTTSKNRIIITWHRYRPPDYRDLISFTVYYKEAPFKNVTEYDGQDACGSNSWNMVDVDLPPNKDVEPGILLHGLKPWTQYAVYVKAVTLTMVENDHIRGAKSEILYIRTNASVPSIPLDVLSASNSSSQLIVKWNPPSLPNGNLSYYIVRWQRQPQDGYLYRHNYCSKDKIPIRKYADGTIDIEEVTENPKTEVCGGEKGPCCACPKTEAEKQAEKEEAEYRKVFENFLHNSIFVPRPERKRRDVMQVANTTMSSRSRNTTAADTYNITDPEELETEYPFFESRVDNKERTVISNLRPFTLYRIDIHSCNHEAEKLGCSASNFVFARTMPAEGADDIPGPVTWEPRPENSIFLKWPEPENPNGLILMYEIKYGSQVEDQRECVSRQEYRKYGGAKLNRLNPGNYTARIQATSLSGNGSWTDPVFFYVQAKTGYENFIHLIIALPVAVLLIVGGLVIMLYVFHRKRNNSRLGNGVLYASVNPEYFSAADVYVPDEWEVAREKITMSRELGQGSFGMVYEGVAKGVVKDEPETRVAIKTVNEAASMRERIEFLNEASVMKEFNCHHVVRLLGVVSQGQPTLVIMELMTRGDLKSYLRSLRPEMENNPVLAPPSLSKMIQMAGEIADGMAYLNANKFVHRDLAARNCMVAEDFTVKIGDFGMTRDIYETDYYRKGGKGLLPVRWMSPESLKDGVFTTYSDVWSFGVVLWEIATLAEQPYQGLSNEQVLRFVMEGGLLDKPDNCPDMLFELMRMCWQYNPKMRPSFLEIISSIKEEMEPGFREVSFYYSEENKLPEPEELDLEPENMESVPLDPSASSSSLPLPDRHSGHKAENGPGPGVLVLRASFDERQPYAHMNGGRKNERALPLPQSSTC
LYNA, sequence (P07948 whole entry, species assumed): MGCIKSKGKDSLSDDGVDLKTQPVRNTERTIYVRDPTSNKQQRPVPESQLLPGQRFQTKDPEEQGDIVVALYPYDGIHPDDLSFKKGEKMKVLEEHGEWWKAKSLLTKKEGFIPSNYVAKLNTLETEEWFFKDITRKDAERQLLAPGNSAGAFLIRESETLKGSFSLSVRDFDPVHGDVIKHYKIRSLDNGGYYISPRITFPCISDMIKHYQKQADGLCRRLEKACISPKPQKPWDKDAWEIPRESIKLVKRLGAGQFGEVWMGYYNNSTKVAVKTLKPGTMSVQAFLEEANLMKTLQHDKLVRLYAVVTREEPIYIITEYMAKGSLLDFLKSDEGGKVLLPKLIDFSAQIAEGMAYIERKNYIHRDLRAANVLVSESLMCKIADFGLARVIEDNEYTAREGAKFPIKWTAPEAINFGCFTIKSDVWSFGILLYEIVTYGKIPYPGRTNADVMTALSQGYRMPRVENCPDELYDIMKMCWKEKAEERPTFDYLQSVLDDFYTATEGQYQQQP
T1 sequence (P51451 whole entry): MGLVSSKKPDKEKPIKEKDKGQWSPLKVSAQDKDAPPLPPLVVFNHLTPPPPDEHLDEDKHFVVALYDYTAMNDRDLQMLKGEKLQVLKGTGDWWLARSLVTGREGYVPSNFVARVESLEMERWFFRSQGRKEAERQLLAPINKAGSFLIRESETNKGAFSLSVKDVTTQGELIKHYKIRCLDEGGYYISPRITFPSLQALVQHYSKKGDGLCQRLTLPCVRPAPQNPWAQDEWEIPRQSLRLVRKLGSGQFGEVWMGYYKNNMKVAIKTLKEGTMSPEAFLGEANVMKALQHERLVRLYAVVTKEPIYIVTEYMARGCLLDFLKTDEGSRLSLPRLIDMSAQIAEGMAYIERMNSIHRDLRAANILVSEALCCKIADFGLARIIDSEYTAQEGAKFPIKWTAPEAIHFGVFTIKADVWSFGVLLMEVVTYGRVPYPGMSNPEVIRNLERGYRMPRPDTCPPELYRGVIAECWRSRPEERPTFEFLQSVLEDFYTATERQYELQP

IC50 (EGFR-L858R/T790M) [nM]	IC50 (BLK [1]) [nM]	inhibition at 1 µM (ABL) [%]	inhibition at 10 µM (ABL) [%]	inhibition at 1 µM (AUR B) [%]	inhibition at 10 µM (AUR B) [%]	inhibition at 1 µM (BLK [2]) [%]	inhibition at 10 µM (BLK [2]) [%]	inhibition at 1 µM (FGFR3) [%]	inhibition at 10 µM (FGFR3) [%]	inhibition at 1 µM (FLT3) [%]	inhibition at 10 µM (FLT3) [%]	inhibition at 1 µM (HER4) [%]	inhibition at 10 µM (HER4) [%]	inhibition at 1 µM (IGF1R) [%]	inhibition at 10 µM (IGF1R) [%]	inhibition at 1 µM (KDR) [%]	inhibition at 10 µM (KDR) [%]	inhibition at 1 µM (LCK) [%]	inhibition at 10 µM (LCK) [%]	SMILES	other results
0.824	< 14	11	39	52	87	99	100	14	33	82	99	60	72	21	36	25	73	18	73	C=CC(=O)Nc1cccc(-n2c(=O)cnc3cnc(Nc4ccc(N5CCN(C)CC5)cc4)nc32)c1 [Compound 020, N-(3-(2-(4-(4-methyl-1-piperazinyl)-phenylamino)-7-oxo-8(7H)-pteridin-yl)phenyl) acrylamide]	inhibition at 1 µM (LYNA): 11%; inhibition at 10 µM (LYNA): 40%; inhibition at 1 µM (PDGFRb): 42%; inhibition at 10 µM (PDGFRb): 84%; inhibition at 1 µM (PIM1): 8.2%; inhibition at 10 µM (PIM1): 54%; inhibition at 1 µM (SRC): 27%; inhibition at 10 µM (SRC): 72%; inhibition at 1 µM (cKit): -12%; inhibition at 10 µM (cKit): -3.2%
1.17	463	5.8	13	32	69	85	99	11	13	60	91	60	77	15	37	3.8	29	14	54	C=CC(=O)Nc1cccc(-n2c(=O)cnc3cnc(Nc4ccc(N5CCN(C)CC5)cc4OC)nc32)c1 [Compound 032, N-(3-(2-(2-methoxy-4-(4-methyl-1-piperazinyl)-phenylamino)-7-oxo-8(7H)-pteridin-yl)phenyl)acrylamide]	inhibition at 1 µM (LYNA): 6.1%; inhibition at 10 µM (LYNA): 20%; inhibition at 1 µM (PDGFRb): 14%; inhibition at 10 µM (PDGFRb): 61%; inhibition at 1 µM (PIM1): 2.1%; inhibition at 10 µM (PIM1): 8.9%; inhibition at 1 µM (SRC): 6.6%; inhibition at 10 µM (SRC): 33%; inhibition at 1 µM (cKit): -9.3%; inhibition at 10 µM (cKit): -4.8%
